Measurements published in patent US8889874B2, “Imidazolone-chalcone derivatives as potential anticancer agent and process for the preparation thereof” (Council of Scientific and Industrial Research, priority 2010, dated 2014).

Assays:
Assay type in all cases: cell-based, human
ACHN (renal) = assay: NCI anticancer screen, SRB assay, 48 h
Outline: (§1)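 Compounds were tested across fifty three human cancer cell lines from nine tumour types. Each line got a dose-response curve of at least five concentrations at 10-fold dilutions, with continuous drug exposure and sulforhodamine B protein staining to estimate viability or growth.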

COLO 205 (colon) = assay: NCI anticancer screen, SRB assay, 48 h
Outline: as §1

HCC-2998 (colon) = assay: NCI anticancer screen, SRB assay, 48 h
Outline: as §1

[1] = test system: HOP-62 (non-small cell lung); assay: NCI anticancer screen, SRB assay, 48 h
Outline: as §1

[2] = test system: HOP-92 (non-small cell lung); assay: NCI anticancer screen, SRB assay, 48 h
Outline: as §1

M14 (melanoma) = assay: NCI anticancer screen, SRB assay, 48 h
Outline: as §1

[3] = test system: NCI-H460 (non-small cell lung); assay: NCI anticancer screen, SRB assay, 48 h
Outline: as §1

NCI/ADR-RES (ovarian) = assay: NCI anticancer screen, SRB assay, 48 h
Outline: as §1

OVCAR-5 (ovarian) = assay: NCI anticancer screen, SRB assay, 48 h
Outline: as §1

RXF 393 (renal) = assay: NCI anticancer screen, SRB assay, 48 h
Outline: as §1

SF-539 (CNS) = assay: NCI anticancer screen, SRB assay, 48 h
Outline: as §1

SK-MEL-2 (melanoma) = assay: NCI anticancer screen, SRB assay, 48 h
Outline: as §1

SK-MEL-28 (melanoma) = assay: NCI anticancer screen, SRB assay, 48 h
Outline: as §1

SN12C (renal) = assay: NCI anticancer screen, SRB assay, 48 h
Outline: as §1

SNB-19 (CNS) = assay: NCI anticancer screen, SRB assay, 48 h
Outline: as §1

U251 (CNS) = assay: NCI anticancer screen, SRB assay, 48 h
Outline: as §1

UO-31 (renal) = assay: NCI anticancer screen, SRB assay, 48 h
Outline: as §1

Breast cancer cell lines = assay: NCI anticancer screen, SRB assay, panel summary
Outline: as §1

CNS cancer cell lines = assay: NCI anticancer screen, SRB assay, panel summary; settings: CNS panel
Outline: as §1

Colon cancer cell lines = assay: NCI anticancer screen, SRB assay, panel summary; settings: Colon panel
Outline: as §1

[4] = test system: Leukemia cancer cell lines; assay: NCI anticancer screen, SRB assay, panel summary; settings: Leukemia panel
Outline: as §1

[5] = test system: Melanoma cancer cell lines; assay: NCI anticancer screen, SRB assay, panel summary; settings: Melanoma panel
Outline: as §1

[6] = test system: Non-small cell lung cancer cell lines; assay: NCI anticancer screen, SRB assay, panel summary
Outline: as §1

[7] = test system: Ovarian cancer cell lines; assay: NCI anticancer screen, SRB assay, panel summary; settings: Ovarian panel
Outline: as §1

[8] = test system: Prostate cancer cell lines; assay: NCI anticancer screen, SRB assay, panel summary
Outline: as §1

Renal cancer cell lines = assay: NCI anticancer screen, SRB assay, panel summary
Outline: as §1

[9] = 48 h exposure, SRB, read-out: GI50
[10] = log of concentration in mol/L causing 50% inhibition of net cell growth
[11] = log of concentration leading to 50% net cell death
[12] = log of concentration resulting in total inhibition of net cell growth

COc1ccc(-c2cn(-c3cccc(C(=O)/C=C/c4cc(OC)c(OC)c(OC)c4)c3)c(=O)[nH]2)cc1 [5b, 4-(4-methoxyphenyl)-1-3-[(E)-3-(3,4,5-trimethoxyphenyl)-2-propenoyl]phenyl-2,3-dihydro-1H-2-imidazolone]
pGI50 (-log of molar concentration causing 50% inhibition of net cell growth) (ACHN (renal)): 5.74
GI50 (ACHN (renal); [9]): 1820 nM
pGI50 (-log of molar concentration causing 50% inhibition of net cell growth) (COLO 205 (colon); COLO205): 5.74
GI50 (COLO 205 (colon); COLO 205, 48 h exposure, SRB, read-out: GI50): 1840 nM
pGI50 (-log of molar concentration causing 50% inhibition of net cell growth) (HCC-2998 (colon)): 5.79
GI50 (HCC-2998 (colon); [9]): 1640 nM
pGI50 (-log of molar concentration causing 50% inhibition of net cell growth) [1]: 5.23
GI50 [1, 9]: 5910 nM
pGI50 (-log of molar concentration causing 50% inhibition of net cell growth) [2]: 4.83
GI50 [2, 9]: 14900 nM
pGI50 (-log of molar concentration causing 50% inhibition of net cell growth) (M14 (melanoma)): 5.73
GI50 (M14 (melanoma); [9]): 1850 nM
pGI50 (-log of molar concentration causing 50% inhibition of net cell growth) [3]: 5.81
GI50 [3, 9]: 1560 nM
pGI50 (-log of molar concentration causing 50% inhibition of net cell growth) (NCI/ADR-RES (ovarian); NCI/ADR-RES): 5.77
GI50 (NCI/ADR-RES (ovarian); NCl/ADR-RES, 48 h exposure, SRB, read-out: GI50): 1700 nM
pGI50 (-log of molar concentration causing 50% inhibition of net cell growth) (OVCAR-5 (ovarian)): 5.58
GI50 (OVCAR-5 (ovarian); [9]): 2640 nM
GI50 (RXF 393 (renal); RXF 393, 48 h exposure, SRB, read-out: GI50): 1920 nM
pGI50 (-log of molar concentration causing 50% inhibition of net cell growth) (RXF 393 (renal); RXF-393): 5.72
pGI50 (-log of molar concentration causing 50% inhibition of net cell growth) (SF-539 (CNS)): 5.70
GI50 (SF-539 (CNS); [9]): 2000 nM
pGI50 (-log of molar concentration causing 50% inhibition of net cell growth) (SK-MEL-2 (melanoma)): 5.58
GI50 (SK-MEL-2 (melanoma); [9]): 2630 nM
pGI50 (-log of molar concentration causing 50% inhibition of net cell growth) (SK-MEL-28 (melanoma)): 5.69
GI50 (SK-MEL-28 (melanoma); [9]): 2030 nM
pGI50 (-log of molar concentration causing 50% inhibition of net cell growth) (SN12C (renal); SN 12C): 5.46
GI50 (SN12C (renal); SN12C, 48 h exposure, SRB, read-out: GI50): 3500 nM
pGI50 (-log of molar concentration causing 50% inhibition of net cell growth) (SNB-19 (CNS)): 5.36
GI50 (SNB-19 (CNS); [9]): 4380 nM
pGI50 (-log of molar concentration causing 50% inhibition of net cell growth) (U251 (CNS)): 6.06
GI50 (U251 (CNS); [9]): 880 nM
pGI50 (-log of molar concentration causing 50% inhibition of net cell growth) (UO-31 (renal)): 5.72
GI50 (UO-31 (renal); [9]): 1910 nM
mean graph midpoint (MG_MID) of Log10 LC50 (Breast cancer cell lines): 4.91
mean graph midpoint (MG_MID) of Log10 GI50 (Breast cancer cell lines; Breast panel, log of concentration in mol/L causing 50% inhibition of net cell growth): 5.61
mean graph midpoint (MG_MID) of Log10 TGI (Breast cancer cell lines; Breast panel, log of concentration resulting in total inhibition of net cell growth): 4.86
mean graph midpoint (MG_MID) of Log10 GI50 (CNS cancer cell lines; [10]): 5.54
mean graph midpoint (MG_MID) of Log10 LC50 (CNS cancer cell lines; [11]): 4.55
mean graph midpoint (MG_MID) of Log10 TGI (CNS cancer cell lines; [12]): 5.01
mean graph midpoint (MG_MID) of Log10 GI50 (Colon cancer cell lines; [10]): 5.95
mean graph midpoint (MG_MID) of Log10 LC50 (Colon cancer cell lines; [11]): 5.13
mean graph midpoint (MG_MID) of Log10 TGI (Colon cancer cell lines; [12]): 5.58
mean graph midpoint (MG_MID) of Log10 GI50 [4, 10]: 5.96
mean graph midpoint (MG_MID) of Log10 TGI [4, 12]: 4.00
mean graph midpoint (MG_MID) of Log10 GI50 [5, 10]: 5.72
mean graph midpoint (MG_MID) of Log10 LC50 [5, 11]: 4.58
mean graph midpoint (MG_MID) of Log10 TGI [5, 12]: 5.25
mean graph midpoint (MG_MID) of Log10 LC50 [6]: 4.82
mean graph midpoint (MG_MID) of Log10 GI50 ([6]; Non-small cell lung panel, log of concentration in mol/L causing 50% inhibition of net cell growth): 5.30
mean graph midpoint (MG_MID) of Log10 TGI ([6]; Non-small cell lung panel, log of concentration resulting in total inhibition of net cell growth): 4.66
mean graph midpoint (MG_MID) of Log10 GI50 [7, 10]: 5.58
mean graph midpoint (MG_MID) of Log10 LC50 [7, 11]: 4.41
mean graph midpoint (MG_MID) of Log10 TGI [7, 12]: 4.83
mean graph midpoint (MG_MID) of Log10 GI50 [8, 10]: 5.21
mean graph midpoint (MG_MID) of Log10 TGI [8, 12]: 4.41
mean graph midpoint (MG_MID) of Log10 LC50 (Renal cancer cell lines): 4.46
mean graph midpoint (MG_MID) of Log10 GI50 (Renal cancer cell lines; Renal panel, log of concentration in mol/L causing 50% inhibition of net cell growth): 5.60
mean graph midpoint (MG_MID) of Log10 TGI (Renal cancer cell lines; Renal panel, log of concentration resulting in total inhibition of net cell growth): 5.12
